In PubChem BioAssay (NCI):
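Interpolation was linear, between the two tested concentrations surrounding the appropriate level; five concentrations were tested over 48 hours in 96-well plates. GI50 marks 50% less growth. At the TGI there is no net growth.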

Legend:
Assay in all cases: DTP human tumour cell line panel, 48 h
[1] = system: HS 578T breast
[2] = system: HOP-62 NSCLC
[3] = system: HOP-92 NSCLC
[4] = system: HCT-15 colon
[5] = system: MALME-3M melanoma
[6] = system: 786-0 renal
[7] = system: OVCAR-3 ovarian
[8] = system: OVCAR-8 ovarian
[9] = system: M14 melanoma
[10] = system: SN12C renal
[11] = system: DU-145 prostate
[12] = system: SF-295 CNS
[13] = system: HT29 colon
[14] = system: NCI/ADR-RES ovarian
[15] = system: HCC-2998 colon
[16] = system: EKVX NSCLC
[17] = system: MCF7 breast
[18] = system: KM12 colon
[19] = system: UACC-62 melanoma
[20] = system: COLO 205 colon
[21] = system: SK-OV-3 ovarian
[22] = system: K-562 leukemia
[23] = system: PC-3 prostate
[24] = system: RXF 393 renal
[25] = system: A549 NSCLC
[26] = system: SF-539 CNS
[27] = system: RPMI-8226 leukemia
[28] = system: MDA-MB-231 breast
[29] = system: ACHN renal
[30] = system: SK-MEL-28 melanoma
[31] = system: UACC-257 melanoma
[32] = system: SNB-75 CNS
[33] = system: OVCAR-4 ovarian
[34] = system: CAKI-1 renal
[35] = system: A498 renal
[36] = system: MDA-MB-435
[37] = system: TK-10 renal
[38] = system: U251 CNS
[39] = system: NCI-H23 lung
[40] = system: SF-268 CNS
[41] = system: LOX IMVI melanoma
[42] = system: SK-MEL-5 melanoma
[43] = system: HL-60(TB) leukemia
[44] = system: T-47D breast
[45] = system: NCI-H460 lung
[46] = system: HCT-116 colon
[47] = system: OVCAR-5 ovarian
[48] = system: BT-549 breast
[49] = system: SNB-19 CNS
[50] = system: SW-620 colon

## COc1ccc(-c2nc3c(-c4ccccc4)nc(-c4ccccc4)cn3c2-c2ccc(OC)cc2)cc1
[1]
  GI50: 30.6 µM
  TGI: > 100 µM
[2]
  GI50: 40.6 µM
  TGI: > 100 µM
[3]
  GI50: 54.6 µM
  TGI: > 100 µM
[4]
  GI50: > 100 µM
  TGI: > 100 µM
[5]
  GI50: > 100 µM
  TGI: > 100 µM
[6]
  GI50: 49.5 µM
  TGI: > 100 µM
[7]
  GI50: > 100 µM
  TGI: > 100 µM
[8]
  GI50: > 100 µM
  TGI: > 100 µM
[9]
  GI50: > 100 µM
  TGI: > 100 µM
[10]
  GI50: > 100 µM
  TGI: > 100 µM
[11]
  GI50: > 100 µM
  TGI: > 100 µM
[12]
  GI50: > 100 µM
  TGI: > 100 µM
[13]
  GI50: > 100 µM
  TGI: > 100 µM
[14]
  GI50: > 100 µM
  TGI: > 100 µM
[15]
  GI50: > 100 µM
  TGI: > 100 µM
[16]
  GI50: > 100 µM
  TGI: > 100 µM
[17]
  GI50: > 100 µM
  TGI: > 100 µM
[18]
  GI50: > 100 µM
  TGI: > 100 µM
[19]
  GI50: 88.6 µM
  TGI: > 100 µM
[20]
  GI50: > 100 µM
  TGI: > 100 µM
[21]
  GI50: 82.5 µM
  TGI: > 100 µM
[22]
  GI50: > 100 µM
  TGI: > 100 µM
[23]
  GI50: > 100 µM
  TGI: > 100 µM
[24]
  GI50: 62.7 µM
  TGI: > 100 µM
[25]
  GI50: > 100 µM
  TGI: > 100 µM
[26]
  GI50: 88.2 µM
  TGI: > 100 µM
[27]
  GI50: > 100 µM
  TGI: > 100 µM
[28]
  GI50: 68.5 µM
  TGI: > 100 µM
[29]
  GI50: > 100 µM
  TGI: > 100 µM
[30]
  GI50: > 100 µM
  TGI: > 100 µM
[31]
  GI50: > 100 µM
  TGI: > 100 µM
[32]
  GI50: 26.8 µM
  TGI: > 100 µM
[33]
  GI50: > 100 µM
  TGI: > 100 µM
[34]
  GI50: > 100 µM
  TGI: > 100 µM
[35]
  GI50: > 100 µM
  TGI: > 100 µM
[36]
  GI50: > 100 µM
  TGI: > 100 µM
[37]
  GI50: > 100 µM
  TGI: > 100 µM
[38]
  GI50: > 100 µM
  TGI: > 100 µM
[39]
  GI50: > 100 µM
  TGI: > 100 µM
[40]
  GI50: > 100 µM
  TGI: > 100 µM
[41]
  GI50: > 100 µM
  TGI: > 100 µM
[42]
  GI50: > 100 µM
  TGI: > 100 µM
[43]
  GI50: 3.28 µM
  TGI: 52.6 µM
[44]
  GI50: > 100 µM
  TGI: > 100 µM
[45]
  GI50: > 100 µM
  TGI: > 100 µM
[46]
  GI50: > 100 µM
  TGI: > 100 µM
[47]
  GI50: > 100 µM
  TGI: > 100 µM
[48]
  GI50: > 100 µM
  TGI: > 100 µM
[49]
  GI50: > 100 µM
  TGI: > 100 µM
[50]
  GI50: > 100 µM
  TGI: > 100 µM
